Tested on: sunflower lines and hybrids carrying A122T and/or A205V AHASL1 alleles
Experiment: Greenhouse whole-plant response to imazapyr doses (height, Phytotoxicity Index, dry biomass), Example 2
Type: in vivo, Helianthus annuus
Conditions: 14 DAT
Method: Seeds were sown in Petri dishes and, after germination, plantlets were transplanted to pots of 10 cm of diameter in a potting media consisting of equal parts of vermiculite, soil and sand. Plants were grown in a greenhouse under natural light conditions supplemented with 400 W sodium halide lamps to provide a 16 hr daylength. Day/night temperatures were 25 and 20° C., respectively. At the V2-V4 stage (Schneiter & Miller (1981) Crop Sci. 21:901-903) 10 plants of each genotype were randomly assigned to each treatment consisting of eight imazapyr doses (0, 40, 80, 160, 240, 320, 400 and 480 g ai/ha, corresponding to untreated, 0.5×, 1×, 2×, 3×, 4×, 5× and 6×, respectively), and a zero-time biomass determination. Experiment was arranged as a randomized block design with a full factorial (sunflower line×treatment) arrangement of treatments and 10 replications.
On the day of herbicide application ten plants of each genotype were cut at the cotyledonal node and dried at 60° C. for 48 hrs for zero-time dried weight determination.
The remaining plants were maintained for 14 days after imazapyr treatment (DAT) and their height, Phytotoxicity Index (PI) and above ground dry biomass were determined Height was determined as the distance between the cotyledonal node and the apex of each plant. Above ground biomass data from each line were converted to biomass accumulation after application by subtracting the appropriate average zero-time biomass from each sample. Dry biomass data were converted to percentages of the untreated control plants within each line to allow direct comparisons between groups.

[1] = H1 (A205V hybrid), 0.5x=40 g ai/ha
[2] = H2 (A122T hybrid), 0.5x=40 g ai/ha
[3] = H2 (A122T hybrid), 5x=400 g ai/ha
[4] = H3 (A122T/A205V hybrid), 1x=80 g ai/ha
[5] = H3 (A122T/A205V hybrid), 4x=320 g ai/ha
[6] = H3 (A122T/A205V hybrid), 6x=480 g ai/ha
[7] = H4 (A122T/A205V hybrid), 0.5x=40 g ai/ha
[8] = H4 (A122T/A205V hybrid), 2x=160 g ai/ha
[9] = H4 (A122T/A205V hybrid), 3x=240 g ai/ha

CC(C)C1(C)N=C(c2ncccc2C(=O)O)NC1=O (stereo not drawn) [imazapyr]
Difference between A205V vs A205V/A122T, Phytotoxicity Index (0.5x=40 g ai/ha): −0.50
Difference between A205V vs A205V/A122T, biomass accumulation (0.5x=40 g ai/ha): −4.33 % of untreated
Difference between A205V vs A205V/A122T, plant height (0.5x=40 g ai/ha): 0.21 % of untreated
Difference between A1222T vs A205V/A122T, plant height (0.5x=40 g ai/ha): 0.49 % of untreated
ifference between A1222T vs A205V/A122T, Phytotoxicity Index (0.5x=40 g ai/ha): −0.21
ifference between A1222T vs A205V/A122T, biomass accumulation (0.5x=40 g ai/ha): −0.76 % of untreated
Difference between A205V vs A205V/A122T, Phytotoxicity Index (1x=80 g ai/ha): −0.50
Difference between A205V vs A205V/A122T, biomass accumulation (1x=80 g ai/ha): −13.45 % of untreated
Difference between A205V vs A205V/A122T, plant height (1x=80 g ai/ha): 0.89 % of untreated
Difference between A1222T vs A205V/A122T, plant height (1x=80 g ai/ha): 1.21 % of untreated
ifference between A1222T vs A205V/A122T, Phytotoxicity Index (1x=80 g ai/ha): −0.21
ifference between A1222T vs A205V/A122T, biomass accumulation (1x=80 g ai/ha): −2.17 % of untreated
Difference between A205V vs A205V/A122T, Phytotoxicity Index (2x=160 g ai/ha): 1.66
Difference between A205V vs A205V/A122T, biomass accumulation (2x=160 g ai/ha): −30.47 % of untreated
Difference between A205V vs A205V/A122T, plant height (2x=160 g ai/ha): −24.63 % of untreated
Difference between A1222T vs A205V/A122T, plant height (2x=160 g ai/ha): −0.32 % of untreated
ifference between A1222T vs A205V/A122T, Phytotoxicity Index (2x=160 g ai/ha): −0.20
ifference between A1222T vs A205V/A122T, biomass accumulation (2x=160 g ai/ha): −1.07 % of untreated
Difference between A205V vs A205V/A122T, Phytotoxicity Index (3x=240 g ai/ha): 4.65
Difference between A205V vs A205V/A122T, biomass accumulation (3x=240 g ai/ha): −41.42 % of untreated
Difference between A205V vs A205V/A122T, plant height (3x=240 g ai/ha): −46.79 % of untreated
Difference between A1222T vs A205V/A122T, plant height (3x=240 g ai/ha): −1.22 % of untreated
ifference between A1222T vs A205V/A122T, Phytotoxicity Index (3x=240 g ai/ha): −0.17
ifference between A1222T vs A205V/A122T, biomass accumulation (3x=240 g ai/ha): 0.55 % of untreated
Difference between A205V vs A205V/A122T, Phytotoxicity Index (4x=320 g ai/ha): 6.92
Difference between A205V vs A205V/A122T, biomass accumulation (4x=320 g ai/ha): −52.87 % of untreated
Difference between A205V vs A205V/A122T, plant height (4x=320 g ai/ha): −62.01 % of untreated
Difference between A1222T vs A205V/A122T, plant height (4x=320 g ai/ha): 1.15 % of untreated
ifference between A1222T vs A205V/A122T, Phytotoxicity Index (4x=320 g ai/ha): 0.00
ifference between A1222T vs A205V/A122T, biomass accumulation (4x=320 g ai/ha): −0.73 % of untreated
Difference between A205V vs A205V/A122T, Phytotoxicity Index (5x=400 g ai/ha): 7.59
Difference between A205V vs A205V/A122T, biomass accumulation (5x=400 g ai/ha): −46.69 % of untreated
Difference between A205V vs A205V/A122T, plant height (5x=400 g ai/ha): −48.59 % of untreated
Difference between A1222T vs A205V/A122T, plant height (5x=400 g ai/ha): 9.12 % of untreated
ifference between A1222T vs A205V/A122T, Phytotoxicity Index (5x=400 g ai/ha): 0.21
ifference between A1222T vs A205V/A122T, biomass accumulation (5x=400 g ai/ha): −1.14 % of untreated
Difference between A205V vs A205V/A122T, Phytotoxicity Index (6x=480 g ai/ha): 7.19
Difference between A205V vs A205V/A122T, biomass accumulation (6x=480 g ai/ha): −41.41 % of untreated
Difference between A205V vs A205V/A122T, plant height (6x=480 g ai/ha): −31.39 % of untreated
Difference between A1222T vs A205V/A122T, plant height (6x=480 g ai/ha): 19.49 % of untreated
ifference between A1222T vs A205V/A122T, Phytotoxicity Index (6x=480 g ai/ha): 0.17
ifference between A1222T vs A205V/A122T, biomass accumulation (6x=480 g ai/ha): 2.41 % of untreated
Height reduction (A122T homozygous lines, 0.5x): 0.1%
Biomass weight reduction (A122T homozygous, higher dose (6x)): 25%
Height versus untreated controls (A205V homozygous lines and hybrid, 0.5x or 1x): did not differ from the untreated controls
Phytotoxicity Index (scale 0-9) [1]: 0
biomass accumulation (dry) [1]: 95.0 % of untreated
Phytotoxicity Index (scale 0-9) (H1 (A205V hybrid), 1x=80 g ai/ha): 0
Phytotoxicity Index (scale 0-9) (H1 (A205V hybrid), 2x=160 g ai/ha): 1.8
Phytotoxicity Index (scale 0-9) (H1 (A205V hybrid), 3x=240 g ai/ha): 6.4
Phytotoxicity Index (scale 0-9) (H1 (A205V hybrid), 4x=320 g ai/ha): 8.0
Phytotoxicity Index (scale 0-9) (H1 (A205V hybrid), 5x=400 g ai/ha): 8.9
Phytotoxicity Index (scale 0-9) (H1 (A205V hybrid), 6x=480 g ai/ha): 9.0
Phytotoxicity Index (scale 0-9) [2]: 0.5
biomass accumulation (dry) [2]: 100 % of untreated
Phytotoxicity Index (scale 0-9) (H2 (A122T hybrid), 1x=80 g ai/ha): 0.5
Phytotoxicity Index (scale 0-9) (H2 (A122T hybrid), 2x=160 g ai/ha): 0.5
Phytotoxicity Index (scale 0-9) (H2 (A122T hybrid), 3x=240 g ai/ha): 0.5
Phytotoxicity Index (scale 0-9) (H2 (A122T hybrid), 4x=320 g ai/ha): 0.5
Phytotoxicity Index (scale 0-9) [3]: 0.5
plant height [3]: 87.0 % of untreated
Phytotoxicity Index (scale 0-9) (H2 (A122T hybrid), 6x=480 g ai/ha): 0.5
Phytotoxicity Index (scale 0-9) (H3 (A122T/A205V hybrid), 0.5x=40 g ai/ha): 0.5
Phytotoxicity Index (scale 0-9) [4]: 0.5
biomass accumulation (dry) [4]: 100.0 % of untreated
plant height [4]: 97.0 % of untreated
Phytotoxicity Index (scale 0-9) (H3 (A122T/A205V hybrid), 2x=160 g ai/ha): 0.5
Phytotoxicity Index (scale 0-9) (H3 (A122T/A205V hybrid), 3x=240 g ai/ha): 0.5
Phytotoxicity Index (scale 0-9) [5]: 0.5
plant height [5]: 92.0 % of untreated
Phytotoxicity Index (scale 0-9) (H3 (A122T/A205V hybrid), 5x=400 g ai/ha): 0.6
Phytotoxicity Index (scale 0-9) [6]: 1.0
plant height [6]: 58.0 % of untreated
Phytotoxicity Index (scale 0-9) [7]: 0.0
plant height [7]: 100.0 % of untreated
Phytotoxicity Index (scale 0-9) (H4 (A122T/A205V hybrid), 1x=80 g ai/ha): 0.0
Phytotoxicity Index (scale 0-9) [8]: 0.0
plant height [8]: 100.0 % of untreated
Phytotoxicity Index (scale 0-9) [9]: 0.0
plant height [9]: 100.0 % of untreated
Phytotoxicity Index (scale 0-9) (H4 (A122T/A205V hybrid), 4x=320 g ai/ha): 0.0
